Experimental data: patent US10344330B2, “Glatiramer acetate response biomarker mRNA potency assay” (Mylan Inc., priority 2013, dated 2019)

B1: MBP: myelin basic protein, a negative control (protein, UniProt P02686 1-304, looked up)
Myelin basic protein: MGNHAGKRELNAEKASTNSETNRGESEKKRNLGELSRTTSEDNEVFGEADANQNNGTSSQDTAVTDSKRTADPKNAWQDAHPADPGSRPHLIRLFSRDAPGREDNTFKDRPSESDELQTIQEDSAATSESLDVMASQKRPSQRHGSKYLATASTMDHARHGFLPRHRDTGILDSIGRFFGGDRGAPKRGSGKDSHHPARTAHYGSLPQKSHGRTQDENPVVHFFKNIVTPRTPPPSQGKGRGLSLSRFSWGAEGQRPGFGYGGRASDYKSAHKGFKGVDAQGTLSKIFKLGGRDSRSGSPMARR

Test system: IL-13 mRNA in LN cells
Test: IL-13 mRNA by real-time PCR in LN cells of GA-immunized CD-1, BALB/cByJ, SJL/J mice (Example III)
Format: cell-based, mouse
Conditions: 6 hours
Protocol: On Day 0, mice were immunized with 250 μg GA (GMA, Mylan Pharmaceuticals, Inc.) and CFA. The GA solution (20 mg/mL) was diluted with Dulbecco's Phosphate-Buffered Saline to 5 mg/mL. The dosing formulation consisted of equal volumes of the diluted GA solution (5 mg/mL) and CFA solution, mixed until well-emulsified. Animals were weighed and allocated to groups. Animals were dosed by injection into four footpads. The injection volume per animal was 0.1 mL (about 10 μL into each front footpad, and 40 μL into each hind footpad).
Immunized animals were euthanized by cervical dislocation on Day 10 post-immunization. Lymph node cells were isolated from animals and treated with Myelin Basic Protein (MBP, a negative control), Concanavalin A (ConA, a positive control) or GA as shown in Table 16. Lymph nodes in the axillary and popliteal regions were removed aseptically in a purifier clean bench. […] The LN were then washed 3 times with −5 mL of RPMI medium, and isolated by pressing the LN with a syringe plunger. […] The cell suspension was centrifuged at about 200×g for 10 minutes at about 4° C. and re-suspended in ice cold enriched DCCM-1 medium. Cells were seeded in 96-well tissue culture plates.
LN cells isolated from GA-immunized animals were stimulated with GA (GMA, Mylan Pharmaceuticals, Inc.) at concentrations as indicated in Tables 16 and 17. A positive control was prepared by treating LN cells with 2.5 μg/mL concavalin A (ConA, a non-specific T cell stimulant). Myelin basic protein (MBP, 10 μg/mL) and enriched DCCM-1 medium served as negative controls. The cells from all groups each were stimulated with the same GA lot. Each reaction was set up in triplicate.
After incubation at about 37° C. in a humidified CO2 incubator for 6 hours, the cells were lysed for total RNA isolation. Total RNA was isolated from treated LN cells using SV 96 Total RNA Isolation System according to the manufacturer's protocol (Promega, Cat. #Z3500). Cells were washed once with Phosphate Buffered Saline (PBS) and lysed in RNA lysis buffer. The lysate was transferred to wells of the SV 96 binding plate. Samples were washed with RNA wash solution and treated with DNase. Total RNA was eluted with nuclease-free water from the binding plate.
After the reverse transcriptase reaction was completed, cDNA samples were used directly for real-time PCR to measure the response biomarker mRNA levels produced by the stimulated cells. […] All probes for target genes contained FAM dye, and probes for the internal control contained VIC®/MGB dye. Samples will be prepared and run in 96-well plates using a Real-Time PCR system (7500, Life Technologies). This system allows direct detection of PCR-product formation by measuring the increase in fluorescent emission continuously during the PCR reaction. A relative quantitation method was used to analyze changes in mouse IL-2, IL-4, IL-5, IL-10, IL-13, IFN-γ and TNF-α expression in GA-treated samples relative to the untreated control (enriched DCCM-1 treated) samples. The Real-Time PCR program was:
The levels of mouse cytokine amplicons (IL-2, IL-4, IL-5, IL-10, IL-13, mIFN-γ and TNF-α) were normalized to internal probe levels (GAPDH) from the same samples. The following equations were used to calculate the relative increase in response to GA stimulation compared to the control sample: ΔCT=CT_target−CT_reference ΔΔCT=−ΔCT_Treated−CT_VC

[1] = Group 1C: CD-1, GA-immunized, stimulation 10 μg/mL
[2] = Group 2C: BALB/cByJ, GA-immunized, stimulation 10 μg/mL
[3] = Group 3C: SJL/J, GA-immunized, stimulation 10 μg/mL

Molecule	IL-13 mRNA Expression (Group 1C: CD-1, GA-immunized, stimulation 0.3 μg/mL) [fold change vs control]	IL-13 mRNA Expression (Group 1C: CD-1, GA-immunized, stimulation 1 μg/mL) [fold change vs control]	IL-13 mRNA Expression (Group 1C: CD-1, GA-immunized, stimulation 3 μg/mL) [fold change vs control]	IL-13 mRNA Expression [1] [fold change vs control]	IL-13 mRNA Expression (Group 2C: BALB/cByJ, GA-immunized, stimulation 0.3 μg/mL) [fold change vs control]	IL-13 mRNA Expression (Group 2C: BALB/cByJ, GA-immunized, stimulation 1 μg/mL) [fold change vs control]	IL-13 mRNA Expression (Group 2C: BALB/cByJ, GA-immunized, stimulation 3 μg/mL) [fold change vs control]	IL-13 mRNA Expression [2] [fold change vs control]	IL-13 mRNA Expression (Group 3C: SJL/J, GA-immunized, stimulation 0.3 μg/mL) [fold change vs control]	IL-13 mRNA Expression (Group 3C: SJL/J, GA-immunized, stimulation 1 μg/mL) [fold change vs control]	IL-13 mRNA Expression (Group 3C: SJL/J, GA-immunized, stimulation 3 μg/mL) [fold change vs control]	IL-13 mRNA Expression [3] [fold change vs control]	IL-13 mRNA Expression (Group 1C: CD-1, GA-immunized, stimulation 2.5 μg/mL) [fold change vs control]	IL-13 mRNA Expression (Group 2C: BALB/cByJ, GA-immunized, stimulation 2.5 μg/mL) [fold change vs control]	IL-13 mRNA Expression (Group 3C: SJL/J, GA-immunized, stimulation 2.5 μg/mL) [fold change vs control]
L-glutamic acid polymer with L-alanine, L-lysine and L-tyrosine, acetate (salt) [GA]	1.7	3.3	9.4	12.3	3.2	9.1	12.4	12.6	1.7	7.3	12.9	20.0	–	–	–
Concanavalin A [ConA, reference compound]	–	–	–	–	–	–	–	–	–	–	–	–	31.3	32.0	24.4
B1	–	–	–	1.5	–	–	–	0.8	–	–	–	0.6	–	–	–
